Data on 10 compounds can be found in US9296704B2, “Substituted pyrimidines as protein kinase inhibitors” (CELGENE AVILOMICS RESEARCH, INC., priority 2007, dated 2016).

Common to all, as to format: biochemical
The target in one test is T1, EGFR (T790M/L858R) (Homo sapiens, UniProt P00533, L858R/T790M).
T1 construct: purchased BPS Bioscience 40350
As to the kind of experiment: Omnia continuous-read kinase assay, EGFR (T790M/L858R). The note with it: read-out: EGFR (T790M/L858R) inhibiton. The essentials: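 Enzyme pre-incubated 30 min at 27 °C with compound, then ATP/Y12-Sox peptide added; fluorescence (ex360/em485) read continuously 60 min in 20 mM Tris pH 7.5, 5 mM MgCl2, 0.2 mM DTT. WT: 5 nM enzyme, […]; T790M/L858R: 3 nM enzyme, […]. IC50 from initial velocities, variable-slope fit.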

For another test, the target named is T2, JAK3 (Homo sapiens, UniProt P52333).
T2 sequence (P52333 1-1124): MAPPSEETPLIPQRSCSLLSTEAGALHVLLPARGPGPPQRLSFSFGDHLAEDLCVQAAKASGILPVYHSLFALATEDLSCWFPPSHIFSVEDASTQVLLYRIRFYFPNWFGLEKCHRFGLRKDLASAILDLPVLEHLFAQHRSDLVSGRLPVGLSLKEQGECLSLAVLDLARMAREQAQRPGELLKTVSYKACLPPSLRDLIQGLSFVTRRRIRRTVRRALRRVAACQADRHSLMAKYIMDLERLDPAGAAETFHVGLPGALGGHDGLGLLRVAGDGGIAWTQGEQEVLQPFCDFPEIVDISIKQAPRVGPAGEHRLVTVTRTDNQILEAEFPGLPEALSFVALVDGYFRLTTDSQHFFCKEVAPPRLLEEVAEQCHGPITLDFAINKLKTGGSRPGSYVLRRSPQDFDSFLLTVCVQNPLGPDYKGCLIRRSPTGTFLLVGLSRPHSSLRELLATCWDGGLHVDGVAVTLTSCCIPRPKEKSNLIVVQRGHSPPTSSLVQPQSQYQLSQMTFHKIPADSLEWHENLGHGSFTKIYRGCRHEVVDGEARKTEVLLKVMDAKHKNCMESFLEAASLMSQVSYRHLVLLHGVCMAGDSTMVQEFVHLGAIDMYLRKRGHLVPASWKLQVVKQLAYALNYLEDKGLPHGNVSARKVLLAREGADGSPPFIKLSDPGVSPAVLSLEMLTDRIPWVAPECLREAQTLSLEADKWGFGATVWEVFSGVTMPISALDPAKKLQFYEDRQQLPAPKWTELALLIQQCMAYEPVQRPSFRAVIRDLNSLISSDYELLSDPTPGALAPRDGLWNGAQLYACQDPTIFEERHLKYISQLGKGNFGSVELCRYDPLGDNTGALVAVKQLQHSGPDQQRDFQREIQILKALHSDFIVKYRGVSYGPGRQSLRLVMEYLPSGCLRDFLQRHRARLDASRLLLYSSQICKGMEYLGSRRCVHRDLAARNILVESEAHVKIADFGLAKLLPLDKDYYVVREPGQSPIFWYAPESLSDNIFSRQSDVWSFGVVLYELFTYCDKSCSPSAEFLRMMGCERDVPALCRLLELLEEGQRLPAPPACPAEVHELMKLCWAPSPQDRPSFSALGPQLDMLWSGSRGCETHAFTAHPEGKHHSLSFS
Nature of the test: Omnia assay for potency against JAK3. Particulars: read-out: JAK3 Inhibition. The essentials:
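Continuous-read Omnia kinase assay with 5 nM JAK3, 5 μM ATP (near apparent Km) and 5 μM Y12-Sox peptide in Tris pH 7.5/MgCl2 buffer; enzyme pre-incubated with compound 30 min at 27 °C. Fluorescence (ex360/em485) read over 60 min; initial velocities fitted against inhibitor concentration to give IC50.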

The next test has as its target T3, BMX (Homo sapiens, UniProt P51813).
T3 sequence (P51813 1-675): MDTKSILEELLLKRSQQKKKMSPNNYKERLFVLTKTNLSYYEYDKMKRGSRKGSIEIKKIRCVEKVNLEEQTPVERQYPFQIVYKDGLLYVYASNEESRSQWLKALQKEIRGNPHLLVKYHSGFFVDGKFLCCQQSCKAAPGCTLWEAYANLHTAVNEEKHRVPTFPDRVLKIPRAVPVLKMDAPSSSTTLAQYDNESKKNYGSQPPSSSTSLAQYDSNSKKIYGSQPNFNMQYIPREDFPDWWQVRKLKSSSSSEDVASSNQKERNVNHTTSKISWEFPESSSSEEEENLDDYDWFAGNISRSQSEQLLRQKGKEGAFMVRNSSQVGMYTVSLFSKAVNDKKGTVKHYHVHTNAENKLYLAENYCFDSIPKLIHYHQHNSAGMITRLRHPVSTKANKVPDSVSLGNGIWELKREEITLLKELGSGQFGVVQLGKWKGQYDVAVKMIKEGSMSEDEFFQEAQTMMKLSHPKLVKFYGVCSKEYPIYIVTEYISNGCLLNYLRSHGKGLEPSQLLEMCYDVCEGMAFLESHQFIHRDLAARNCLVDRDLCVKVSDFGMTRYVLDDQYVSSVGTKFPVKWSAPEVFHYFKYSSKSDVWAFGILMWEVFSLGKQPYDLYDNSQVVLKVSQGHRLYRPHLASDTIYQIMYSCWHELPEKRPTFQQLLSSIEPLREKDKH
As to the kind of experiment: Omnia assay for potency against BMX. Particulars: read-out: BMX inhibition.

T1 sequence (P00533 25-1210 T790M/L858R): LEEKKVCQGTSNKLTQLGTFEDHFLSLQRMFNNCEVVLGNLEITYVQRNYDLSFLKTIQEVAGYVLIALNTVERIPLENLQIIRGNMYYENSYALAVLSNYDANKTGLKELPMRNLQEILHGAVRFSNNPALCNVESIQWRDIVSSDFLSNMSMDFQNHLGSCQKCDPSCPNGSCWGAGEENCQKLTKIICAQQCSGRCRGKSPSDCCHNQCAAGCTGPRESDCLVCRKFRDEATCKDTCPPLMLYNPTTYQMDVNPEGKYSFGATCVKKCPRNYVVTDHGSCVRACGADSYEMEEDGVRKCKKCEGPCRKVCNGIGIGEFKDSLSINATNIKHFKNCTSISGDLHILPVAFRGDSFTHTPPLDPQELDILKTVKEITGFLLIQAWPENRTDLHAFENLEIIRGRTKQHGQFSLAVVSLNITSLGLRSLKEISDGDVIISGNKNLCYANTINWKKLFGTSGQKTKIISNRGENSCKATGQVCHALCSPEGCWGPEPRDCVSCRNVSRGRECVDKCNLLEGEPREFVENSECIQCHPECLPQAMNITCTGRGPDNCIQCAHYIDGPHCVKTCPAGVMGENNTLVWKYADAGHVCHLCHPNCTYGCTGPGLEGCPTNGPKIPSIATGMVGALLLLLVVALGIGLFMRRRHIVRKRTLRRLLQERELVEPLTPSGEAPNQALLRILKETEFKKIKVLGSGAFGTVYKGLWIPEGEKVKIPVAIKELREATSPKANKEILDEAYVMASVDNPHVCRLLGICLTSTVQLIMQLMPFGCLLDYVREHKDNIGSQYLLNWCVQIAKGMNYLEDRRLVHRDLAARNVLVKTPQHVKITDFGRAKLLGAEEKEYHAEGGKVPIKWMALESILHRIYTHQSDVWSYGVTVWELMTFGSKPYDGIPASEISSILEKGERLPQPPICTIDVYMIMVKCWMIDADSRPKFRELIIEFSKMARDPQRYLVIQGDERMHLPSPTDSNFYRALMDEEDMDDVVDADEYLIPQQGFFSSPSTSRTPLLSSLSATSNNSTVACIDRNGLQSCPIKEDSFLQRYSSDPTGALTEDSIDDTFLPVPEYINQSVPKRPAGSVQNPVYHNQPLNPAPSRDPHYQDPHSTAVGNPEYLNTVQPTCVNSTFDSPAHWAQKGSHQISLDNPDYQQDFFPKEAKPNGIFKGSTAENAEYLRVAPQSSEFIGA

With `C=CC(=O)Nc1cccc(Nc2cc(Nc3cccc(Br)c3)ncn2)c1` [I-1, N-{3-[6-(3-bromophenylamino)-pyrimidin-4-ylamino]-phenyl}-2-propenamide], the IC50 at EGFR (T790M/L858R) and at JAK3 was not above 10 nM throughout.

As to `C=CC(=O)Nc1cccc(Nc2cc(Nc3ccc(Oc4ccccc4)cc3)ncn2)c1` [I-13, N-{3-[6-(4-phenoxyphenylamino)-pyrimidin-4-ylamino]phenyl}-2 propenamide], the IC50 is 10 to 100 nM on EGFR (T790M/L858R), not above 10 nM on BMX and 100 to 1000 nM at JAK3.

Take `C=CC(=O)Nc1cccc(Nc2cc(Nc3ccc(Oc4ccccc4)cc3)ncn2)n1` [I-63]: the IC50 is not above 10 nM on EGFR (T790M/L858R), not above 10 nM at BMX and 10 to 100 nM at JAK3.

With `CN(C)C/C=C/C(=O)Nc1cccc(Nc2cc(Nc3ccc(Oc4ccccc4)cc3)ncn2)n1` [I-64, (E)-4-(dimethylamino)-N-(6-(6-(4-phenoxyphenylamino)pyrimidin-4-ylamino)pyridine-2-yl)but-2-enamide], the IC50 at BMX is 10 to 100 nM; at JAK3, not above 10 nM.

For `C=CC(=O)Nc1cccc(Nc2cc(Oc3cccc(C)c3)ncn2)n1` [I-65], the IC50 is 10 to 100 nM on EGFR (T790M/L858R), not above 10 nM at BMX and not above 10 nM on JAK3.

With `C=CC(=O)Nc1cccc(Nc2cc(Oc3ccc(Oc4ccccc4)cc3)ncn2)n1` [I-66], the IC50 at EGFR (T790M/L858R) was 100 to 1000 nM; at BMX, not above 10 nM; at JAK3, 100 to 1000 nM.

As for `C=CC(=O)N(C)c1cccc(Nc2cc(Nc3ccc(Oc4ccccc4)cc3)ncn2)n1` [I-78, N-methyl-N-(6-(6-(4-phenoxyphenylamino)pyrimidin-4-ylamino)pyridin-2-yl)acrylamide], the IC50 on BMX was 10 to 100 nM; on JAK3 it was not above 10 nM.

`CN(C)C/C=C/C(=O)N(C)c1cccc(Nc2cc(Nc3ccc(Oc4ccccc4)cc3)ncn2)n1` [I-79, (E)-4-(dimethylamino)-N-methyl-N-(6-(6-(4-phenoxyphenylamino)pyrimidin-4-ylamino)pyridine-2-yl)but-2-enamide]: the IC50 on BMX and on JAK3 was not above 10 nM each time.

On to `Cc1cccc(Oc2cc(Nc3cccc(NC(=O)/C=C/CN(C)C)n3)ncn2)c1` [I-81], for which the IC50 at BMX and on JAK3 was not above 10 nM each time.

Regarding `C=CC(=O)Nc1cccc(Nc2cc(Nc3ccccc3)ncn2)n1` [I-94], the IC50 on EGFR (T790M/L858R), on BMX and at JAK3 was not above 10 nM each time.
